Test results as given in patent US20050222041A1, “Ncam binding compounds” (ENKAM Pharmaceuticals A/S, priority 2001, published 2005).
“And” between values parts separate entries of the source, which are not always exact repeats. Identical values can stand only once. Like-named read-outs stand apart in the source and are kept apart here. Ends that are not written are not given here.

How the values were obtained:
[1] = system: NBP10-induced neurite outgrowth; experiment: Inhibition of NBP10d-induced neurite outgrowth by inhibitors of NCAM-dependent signal transduction; assay type: cell-based, rat
PC12E2 cells = experiment: Fura-2 calcium imaging in PC12E2 cells; assay type: cell-based; conditions: lower concentrations than 50 μM
Description: The PC12-E2 cell line was a generous gift from Dr. Klaus Seedorf, Hagedorn Research Institute, Denmark. Cells were grown in DMEM supplemented with 5% v/v FBS and 10% v/v horse serum (HS). For calcium imaging, PC12E2 cells were dislodged mechanically by tapping and seeded at a density of 5-30,000 cells/cm^2 in 4 or 8 well LabTek chambered cover-slides (NUNC) with a growth surface of plastic coated with fibronectin (10 μg/ml) and grown for 1 to 5 days. In some cases, neuronal differentiation was induced by changing the medium to DMEM supplemented with 1% v/v FBS, 1% v/v HS and NGF (50 ng/ml) or FGF-2 (10 ng/ml).
Cells were washed in HANK's solution comprising KCl (5.4 mM), NaCl (137 mM), NaHCO3 (2 mM), MgSO4 (0.8 mM), Na2HPO4 (0.27 mM), Glucose (5.6 mM), CaCl2 (1.25 mM), KH2PO4 (0.44 mM) and loaded with fura-2 acetomethyl ester (Fura-2 AM, 2 μM, Molecular Probes, Eugene, Oreg., USA) dissolved in Dimethyl Sulfoxide (DMSO) for 35 min at 20° C. in the dark. Hereafter, cells were washed four times and placed on the stage of an inverted Axiovert 100 TV microscope (Zeiss, Göttingen, Germany) equipped with an oil immersion UV objective (Zeiss Fluar 40×, 1.3 numerical aperture). […] Rmax was determined in situ using Fura-2 AM loaded cells in the presence of ionomycin (5 μM) and high extracellular calcium (10 mM). Values determined were: Rmax 9.0; Rmin 0.68; F380max/F380min 7.0. […]

hippocampal cells = experiment: Cell aggregation in primary hippocampal aggregate cultures; assay type: cell-based, rat; conditions: 24 h
Description: A variety of suitable compounds have been discussed above. To test the function of the NCAM binding molecule, the inventors have established a simple cell culture system (aggregate cell cultures) that permits a quantitative evaluation of the effect of various ligands. Hippocampal cells are provided from rat embryos. The cells are grown in a defined medium and dissociated cells are seeded in microtiter plates. After 24 h, the amount of aggregates are counted. Compounds to be tested are added to the cell suspension immediately before seeding of the cells in micro-wells. When NCAM binding compounds are present during the aggregation of cells, smaller, but more numerous cell aggregates are seen when quantified 24 h after seeding of the cells. The inhibiting effect of the ligands results in a blockage of the formation of large aggregates from many small aggregates as the adhesion properties of NCAM are blocked. Thus, small but more numerous cell aggregates are seen in the presence of active ligands. Such an effect is due to the presence of different compounds of the invention during the aggregation of cells. The system allows for the examination of disaggregation of the treated cells.
Dissociated hippocampal cells prepared from rat embryos gestational day 18 were seeded in microwell plates 50,000 cells in 15 μl of medium per well as previously described (Maar et al., 1997)(Rønn et al., 1999). All animals were handled in accordance with the national guidelines for animal welfare. Cells were grown in Neurobasal medium supplemented with B27, 20 mM HEPES, penicillin (100 U/ml), streptomycin (100 μg/ml) and 0.4% w/v bovine serum albumin. After 24 h in culture, the number of aggregates per well was determined. […] After 24 h, images of neurons were captured and analysed by means of computer-assisted microscopy as described (Rønn et al., 2000).
An important function of NCAM is mediation of cell adhesion. […] The effect of NBP10 on cell aggregation was only quantified at low concentrations of the peptide (FIG. 1CD). […] Under these conditions, the number of aggregates could not be quantified. […]

[2] = system: primary hippocampal neurons; experiment: Neurite outgrowth in dissociated cultures of primary hippocampal neurons on plastic; assay type: cell-based, rat; conditions: for concentration of maximal effect on neurite outgrowth: bell shaped dose-response
Description: Dissociated hippocampal cells prepared from rat embryos gestational day 18 were seeded in microwell plates 50,000 cells in 15 μl of medium per well as previously described (Maar et al., 1997)(Rønn et al., 1999). All animals were handled in accordance with the national guidelines for animal welfare. Cells were grown in Neurobasal medium supplemented with B27, 20 mM HEPES, penicillin (100 U/ml), streptomycin (100 μg/ml) and 0.4% w/v bovine serum albumin. After 24 h in culture, the number of aggregates per well was determined. For analysis of neurite outgrowth, 5,000 cells/well were seeded in 8 well LabTek Tissue Culture Chamber Slides with a growth surface of Permanox plastic. After 24 h, images of neurons were captured and analysed by means of computer-assisted microscopy as described (Rønn et al., 2000).
The effect of NBP10 in dissociated cultures of primary hippocampal neurons grown on a plastic substratum were examined.

[3] = molecular target: NCAM on primary hippocampal neurons from rat embryos (rat) (UniProt P13596); experiment: cell-based or functional assay
[4] = NBP10d 1 μM, inhibitor concentration not given

COc1cccc(-c2cc(=O)c3ccccc3o2)c1N [PD98059]
effect on NBP10-induced neurite outgrowth ([1]; NBP10d 1 μM, inhibitor 10 μM): partially inhibited

Cc1ccc(-c2nn(C(C)(C)C)c3ncnc(N)c23)cc1 [PP1]
effect on NBP10-induced neurite outgrowth [1, 4]: partially inhibited

C[S+]([O-])c1ccc(-c2nc(-c3ccncc3)c(-c3ccc(F)cc3)[nH]2)cc1 (stereo not shown) [SB203580]
effect on NBP10-induced neurite outgrowth ([1]; NBP10d 1 μM, inhibitor 1 μM): partially inhibited

CCN(CC)CCCCCCCCOC(=O)c1cc(OC)c(OC)c(OC)c1.Cl [TMB-8, 8-(N,N-diethylamino)octyl-3,4,5-trimethoxybenzoate hydrochloride]
effect on NBP10-induced neurite outgrowth [1, 4]: complete inhibition

AKKMWKKTW (listed as Rattus rattus) [NBP10]
effect on intracellular calcium (PC12E2 cells): only a fraction of the cells showed detectable increases in intracellular calcium

AKKMWKKTW [NBP10m, monomeric NBP10 peptide]
concentration at which cultures had no distinct cell aggregates (hippocampal cells): 200 µM
concentration inducing formation of small but distinct aggregates (hippocampal cells): 60 µM
effect on cell aggregation (hippocampal cells): inhibited cell aggregation
shape of dose-response relationship for neurite outgrowth [2]: bell shaped
concentration of maximal effect on neurite outgrowth [2]: ~100 µM
concentration of maximal effect on neurite outgrowth ([2]; listed as monomer): 1.00 µM
effect on neurite outgrowth ([2]; dose-response, 24 h, plastic substratum): stimulated neurite outgrowth

ω-conotoxin MVIIA
effect on NBP10-induced neurite outgrowth [1]: partial inhibition

AKKMWKKTW (peptide, part only, also: four monomers on lysine dendrimer backbone) [NBP10 peptide dendrimer (four NBP10 monomers coupled to a lysine backbone)]
cell aggregation of hippocampal cells, concentration with effect [3]: 1 µM and 2 µM
neurite outgrowth of dissociated hippocampal neurons, concentration of maximal effect [3]: 1 µM
cell aggregation, potency against the peptide monomer ([3]; scale: times lower concentration than the monomer): 50
